Experimental data: the supplement of paper PMC5908809

Assays:
[1] = test system: normal NK cells expanded with K562-aAPC; assay: percent inhibition of viability; higher = more inhibition; settings: 72 h, IL-2 2.5 ng/mL
Protocol: (§1)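 Drug sensitivity and resistance testing on K562-aAPC-expanded normal NK cells: 5 concentrations (10-fold steps over a 10,000-fold range), 72 h at 37 °C, viability by CellTiter-Glo normalised to DMSO and benzethonium chloride controls; DSS from the fitted curve.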

[2] = test system: DERL-7 (IL-2 2.5 ng/mL); assay: as above; settings: 72 h
[3] = test system: IMC-1 (IL-2 20 ng/mL); assay: as above; settings: 72 h
[4] = test system: KAI3 (IL-2 2.5 ng/mL); assay: as above; settings: 72 h
[5] = test system: KHYG-1 (IL-2 2.5 ng/mL); assay: as above; settings: 72 h
[6] = test system: NK-92 (IL-2 2.5 ng/mL); assay: as above; settings: 72 h
[7] = test system: NK-YS (IL-2 2.5 ng/mL); assay: as above; settings: 72 h
[8] = test system: NKL (IL-2 2.5 ng/mL); assay: as above; settings: 72 h
[9] = test system: SNK-6 (IL-2 2.5 ng/mL); assay: as above; settings: 72 h
[10] = test system: YT (IL-2 2.5 ng/mL); assay: as above; settings: 72 h
[11] = test system: normal primary NK cells, pool 1 (3 donors) (IL-2 2.5 ng/mL); assay: as above; settings: 72 h
[12] = test system: normal primary NK cells, pool 1 (3 donors), resting (IL-2 0 ng/mL); assay: as above; settings: 72 h
[13] = test system: normal primary NK cells, pool 2 (3 donors) (IL-2 2.5 ng/mL); assay: as above; settings: 72 h
[14] = test system: normal primary NK cells, pool 3 (3 donors) (IL-2 2.5 ng/mL); assay: as above; settings: 72 h
[15] = test system: normal NK cells expanded with K562-aAPC; assay: drug sensitivity score (DSS) (DSS units); higher = more sensitive; extreme values may be limits of the assay; settings: 72 h; IL-2 2.5 ng/mL
Protocol: as §1

[16] = test system: DERL-7 (IL-2 2.5 ng/mL); assay: as above; settings: 72 h
[17] = test system: IMC-1 (IL-2 20 ng/mL); assay: as above; settings: 72 h
[18] = test system: KAI3 (IL-2 2.5 ng/mL); assay: as above; settings: 72 h
[19] = test system: KHYG-1 (IL-2 2.5 ng/mL); assay: as above; settings: 72 h
[20] = test system: NK-92 (IL-2 2.5 ng/mL); assay: as above; settings: 72 h
[21] = test system: NK-YS (IL-2 2.5 ng/mL); assay: as above; settings: 72 h
[22] = test system: NKL (IL-2 2.5 ng/mL); assay: as above; settings: 72 h
[23] = test system: SNK-6 (IL-2 2.5 ng/mL); assay: as above; settings: 72 h
[24] = test system: YT (IL-2 2.5 ng/mL); assay: as above; settings: 72 h
[25] = test system: normal primary NK cells, pool 1 (3 donors) (IL-2 2.5 ng/mL); assay: as above; settings: 72 h
[26] = test system: normal primary NK cells, pool 1 (3 donors), resting (IL-2 0 ng/mL); assay: as above; settings: 72 h
[27] = test system: normal primary NK cells, pool 2 (3 donors) (IL-2 2.5 ng/mL); assay: as above; settings: 72 h
[28] = test system: normal primary NK cells, pool 3 (3 donors) (IL-2 2.5 ng/mL); assay: as above; settings: 72 h

CC(C)(C)c1nc(-c2cccc(NS(=O)(=O)c3c(F)cccc3F)c2F)c(-c2ccnc(N)n2)s1 [Dabrafenib] (max concentration tested 2500 nM)
percent inhibition of viability [%]
Settings | 0.25 nM | 2.5 nM | 25 nM | 250 nM | 2500 nM
[1] | -3.8 | -9.82 | -8.95 | -1.61 | 6.4
[2] | 3.06 | 5 | -0.47 | -3.32 | 34.5
[3] | -5.61 | -2.47 | -3.07 | -7.52 | 8.46
[4] | -6.1 | 1.01 | 2.43 | -4.3 | 31.2
[5] | -2.85 | -0.1 | 2.78 | 71.5 | 30.8
[6] | -8.16 | -11.7 | -14.1 | -7.91 | -1.09
[7] | -4.15 | -0.92 | 0.04 | -2.02 | 0.94
[8] | -14.1 | -19.1 | -20.9 | -29.2 | -29.9
[9] | -5.34 | 1.84 | -12.1 | 0.17 | 0
[10] | -0.07 | -0.32 | 0.19 | 3.06 | 16.2
[11] | -7.46 | -6.18 | -4.85 | -3.22 | 3.89
[12] | -10.3 | -11.7 | 7.48 | 10 | 45
[13] | -9.64 | -5.28 | -9.79 | -4.67 | -5.57
[14] | -9.2 | -8.52 | -4.83 | -5.01 | -0.02

Settings | drug sensitivity score
[15] | 0
[16] | 1.38
[17] | 0
[18] | 1.13
[19] | 13.4
[20] | 0.89
[21] | 0
[22] | 0.89
[23] | 0
[24] | 0.64
[25] | 0
[26] | 3.85
[27] | 0.89
[28] | 0.89

Cn1c(=O)n(-c2ccc(C(C)(C)C#N)cc2)c2c3cc(-c4cnc5ccccc5c4)ccc3ncc21 [Dactolisib] (max concentration tested 1000 nM)
percent inhibition of viability [%]
Settings | 0.1 nM | 1 nM | 10 nM | 100 nM | 1000 nM
[1] | -4.3 | -1.75 | 17.1 | 38.2 | 57.6
[2] | 0.52 | 16 | 38.7 | 79.4 | 84.9
[3] | -8.09 | 0.4 | -15.1 | 8.63 | 56.9
[4] | -4.23 | -6.61 | 24.4 | 68.8 | 75.8
[5] | -4.3 | -5.69 | 3.3 | 74.9 | 90.8
[6] | -5.17 | -0.09 | 27.1 | 63.9 | 70.8
[7] | 0.2 | -0.12 | 24.7 | 63.3 | 82.3
[8] | -13.1 | -9.35 | 36.5 | 69.7 | 76.1
[9] | -7.98 | -26.8 | 2.13 | 46.8 | 52.4
[10] | -3.01 | -5.11 | 15.7 | 57.6 | 80.4
[11] | -5.56 | 16 | 21.4 | 45 | 38.5
[12] | -1.73 | 24 | 24.7 | 38.7 | 40.6
[13] | -5.46 | 9.09 | 17.1 | 37.6 | 57.4
[14] | -3.41 | 6.19 | 15.4 | 16.5 | 43.5

Settings | drug sensitivity score
[15] | 8.96
[16] | 19.6
[17] | 4.51
[18] | 15.9
[19] | 14.2
[20] | 15.2
[21] | 14.8
[22] | 18.6
[23] | 8.78
[24] | 12.7
[25] | 10.6
[26] | 11.8
[27] | 9.12
[28] | 4.8
